From patent US10597388B2, “Pyridazinone herbicides” (FMC CORPORATION, priority 2014, dated 2020)

Legend:
Format in all cases: in vivo
[1] = system: ducksalad (Heteranthera limosa); assay: Test B flooded paddy test; conditions: 250 g ai/ha, Flood; visual rating on scale of 0 to 100 where 0 is no effect and 100 is complete control; 13 to 15 d after treatment
How it was run: (§1)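 Plants at the 2-leaf stage were flooded to 3 cm above soil, and test compounds were applied directly into the paddy water, which was held at that depth throughout. After 13 to 15 d in a greenhouse, injury was rated visually against untreated controls on a 0–100 scale (0 no effect, 100 complete control).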

[2] = system: rice (Oryza sativa); assay: Test B flooded paddy test; conditions: 250 g ai/ha, Flood; visual rating on scale of 0 to 100 where 0 is no effect and 100 is complete control; 13 to 15 d after treatment
How it was run: as §1

[3] = system: sedge, umbrella (small-flower umbrella sedge, Cyperus difformis); assay: Test B flooded paddy test; conditions: 250 g ai/ha, Flood; visual rating on scale of 0 to 100 where 0 is no effect and 100 is complete control; 13 to 15 d after treatment
How it was run: as §1

[4] = system: barnyardgrass (Echinochloa crus-galli); assay: Test B flooded paddy test; conditions: 250 g ai/ha, Flood; visual rating on scale of 0 to 100 where 0 is no effect and 100 is complete control; 13 to 15 d after treatment
How it was run: as §1

[5] = system: ragweed (common ragweed, Ambrosia elatior); assay: Test A greenhouse herbicide test, pre- and postemergence
How it was run: (§2)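 Seeds sown in loam–sand blend got a preemergence directed soil spray of compound in non-phytotoxic solvent with surfactant. Postemergence treatment was given at 2–10 cm, one- to two-leaf stage. After ~10 d in greenhouse, injury was rated visually vs untreated controls, 0 (no effect) to 100 (complete control).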

[6] = system: kochia (Kochia scoparia); assay: as above
How it was run: as §2

[7] = system: corn (Zea mays); assay: as above; conditions: Postemergence
How it was run: as §2

[8] = system: foxtail, giant (giant foxtail, Setaria faberii); assay: as above
How it was run: as §2

[9] = system: pigweed (Amaranthus retroflexus); assay: as above
How it was run: as §2

[10] = system: ryegrass, Italian (Italian ryegrass, Lolium multiflorum); assay: as above
How it was run: as §2

[11] = system: barnyardgrass (Echinochloa crus-galli); assay: as above
How it was run: as §2

[12] = system: wheat (Triticum aestivum); assay: as above; conditions: Postemergence
How it was run: as §2

[13] = system: blackgrass (Alopecurus myosuroides); assay: Test A greenhouse herbicide test, postemergence
How it was run: (§3)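 Greenhouse postemergence test: formulated chemicals sprayed on one- to two-leaf plants (2 to 10 cm), grown in loam soil blended with sand. Injury assessed visually about 10 d later against untreated controls, scored 0 (no effect) to 100 (complete control).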

[14] = system: galium (catchweed bedstraw, Galium aparine); assay: Test A greenhouse herbicide test, postemergence
How it was run: as §3

[15] = Postemergence, 125 g ai/ha, 0 to 100 scale where 0 is no effect and 100 is complete control
[16] = Postemergence, 500 g ai/ha, visual rating after approx. 10 d, 0 to 100 scale (0 no effect, 100 complete control)
[17] = Preemergence, 500 g ai/ha, 0 to 100 scale where 0 is no effect and 100 is complete control
[18] = Preemergence, 125 g ai/ha, 0 to 100 scale where 0 is no effect and 100 is complete control
[19] = 125 g ai/ha, 0 to 100 scale where 0 is no effect and 100 is complete control
[20] = 500 g ai/ha, visual rating after approx. 10 d, 0 to 100 scale (0 no effect, 100 complete control)

Structure (SMILES)	Plant response rating, Ducksalad [1]	Plant response rating, Rice [2]	Plant response rating, Sedge, Umbrella [3]	Plant response rating, Barnyardgrass [4]	Plant response rating, Ragweed [5, 15]	Plant response rating, Ragweed [5, 16]	Plant response rating, Ragweed [5, 17]	Plant response rating, Kochia [6, 15]	Plant response rating, Kochia [6, 16]	Kochia plant response rating [6, 18]	Plant response rating, Kochia [6, 17]	Plant response rating, Corn [7, 19]	Plant response rating, Corn [7, 20]	Plant response rating, Foxtail, Giant [8, 15]	Plant response rating, Foxtail, Giant [8, 16]	Foxtail, Giant plant response rating [8, 18]	Plant response rating, Foxtail, Giant [8, 17]	Plant response rating, Pigweed [9, 15]	Plant response rating, Pigweed [9, 16]	Pigweed plant response rating [9, 18]	further results
COc1nn(C)c(=O)c(-c2c(C)sc3ccc(Cl)cc23)c1OC(C)=O [Compound 122]	0	0	0	0	50	60	80	40	70	30	70	0	20	40	60	30	70	30	70	100	Plant response rating, Pigweed [9, 17]: 100; Plant response rating, Ryegrass, Italian [10, 15]: 50; Plant response rating, Ryegrass, Italian [10, 16]: 70; Ryegrass, Italian plant response rating [10, 18]: 70; Plant response rating, Ryegrass, Italian [10, 17]: 90; Plant response rating, Barnyardgrass [11, 15]: 20; Plant response rating, Barnyardgrass [11, 16]: 30; Barnyardgrass plant response rating [11, 18]: 0; Plant response rating, Barnyardgrass [11, 17]: 30; Plant response rating, Wheat [12, 19]: 0; Plant response rating, Wheat [12, 20]: 0; Plant response rating, Blackgrass [13, 19]: 30; Plant response rating, Blackgrass [13, 20]: 40; Plant response rating, Galium [14, 19]: 60; Plant response rating, Galium [14, 20]: 70
Cc1ccc2ccccc2c1-c1c(OC(=O)C(C)(C)C)c(C#N)nn(C)c1=O [Compound 128]	30	0	0	0	10	30	70	0	0	0	0	0	0	50	70	80	90	70	90	90	Ragweed plant response rating [5, 18]: 70; Plant response rating, Pigweed [9, 17]: 100; Plant response rating, Ryegrass, Italian [10, 15]: 20; Plant response rating, Ryegrass, Italian [10, 16]: 50; Ryegrass, Italian plant response rating [10, 18]: 10; Plant response rating, Ryegrass, Italian [10, 17]: 30; Plant response rating, Barnyardgrass [11, 15]: 50; Plant response rating, Barnyardgrass [11, 16]: 80; Barnyardgrass plant response rating [11, 18]: 50; Plant response rating, Barnyardgrass [11, 17]: 90; Plant response rating, Wheat [12, 19]: 0; Plant response rating, Wheat [12, 20]: 0; Plant response rating, Blackgrass [13, 19]: 0; Plant response rating, Blackgrass [13, 20]: 20; Plant response rating, Galium [14, 19]: 40; Plant response rating, Galium [14, 20]: 70
